Test in all cases: growth of human tumour cells (NCI), 48 h
The test system of experiment [1] is MALME-3M melanoma.
The test system of experiment [2] is EKVX NSCLC.
In experiment [3] the test system is NCI-H226 lung.
Experiment [4] relates to U251 CNS.
Experiment [5] deals with ACHN renal.
For experiment [6], the system named is OVCAR-8 ovarian.
The subject of experiment [7] is A549 NSCLC.
The test system of experiment [8] is MDA-MB-435.
The test system of experiment [9] is MCF7 breast.
Experiment [10] concerns HS 578T breast.

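Protocol summary: plate cells (96-well), add compound at 5 concentrations, incubate 48 h, interpolate endpoints linearly. GI50 is the concentration that inhibits growth by half. The concentration for full growth arrest is given as TGI.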

On to `COc1c(OC2OC(CO)C(O)C(O)C2O)cc2c(c1OC)-c1ccc(OC)c(=O)cc1[C@@H](NC(C)=O)CC2` (stereo partly specified), for which the TGI in experiment [1], in [2], in [3], in experiment [4], in experiment [5] and in experiment [6] was over 100 µM throughout. The TGI in experiment [7] is over 100 µM.
On to `COC(=O)C(C(=O)C(=O)Nc1ccc(N)cc1[N+](=O)[O-])c1nc2ccc(Cl)cc2[nH]c1=O` (stereo unspecified), for which the TGI in [1], in experiment [2], in [3], in [5], in experiment [6] and in experiment [7] was over 100 µM in each case.
As to `CCCCCCC(=O)CC(=O)C(=O)Nc1ccccc1C`, the TGI in [1], in experiment [2], in experiment [3], in experiment [4], in [5] and in [6] was over 100 µM throughout. The TGI in experiment [7] was over 100 µM.
As to `CCOc1cc[n+](C(=C=[N-])C#N)cc1`, the TGI in experiment [1], in [2], in experiment [3], in experiment [4], in experiment [6] and in experiment [7] was over 100 µM each time.
On to `CCN1C(=O)N(CC)C2C1NN=c1s/c(=C\c3cnc(C)n3C)c(=O)n12` (stereo unspecified), for which the GI50 in experiment [1] was 2.96 µM; in experiment [2], 3.65 µM; in experiment [3], over 100 µM; in [8] it was 321 nM; in [9] it was 676 nM; in [4], 2.83 µM. For the same compound, the GI50 in experiment [5] was 5.94 µM; in experiment [6], 3.41 µM; in experiment [7] it was 3.99 µM. In addition, the TGI in experiment [1] is over 100 µM; in experiment [2] it was over 100 µM; in experiment [3], over 100 µM; in experiment [8] it was 1360 nM; in experiment [9], over 100 µM; in [4], over 100 µM. Further, the TGI in experiment [5], in [6] and in experiment [7] was over 100 µM each time.
Regarding `COc1ccc([Se]c2ccc(OC)cc2)cc1`, the TGI is over 100 µM in experiment [1]; 93.5 µM in experiment [3]; over 100 µM in experiment [4]; over 100 µM in experiment [5]; over 100 µM in experiment [6]; over 100 µM in experiment [7].
With `CC(=O)OC1(C#N)CC2OC1C1NC21` (stereo unspecified), the TGI in experiment [1], in experiment [2], in experiment [3], in experiment [4], in experiment [5] and in experiment [6] was over 100 µM in each case. The compound further came in with a TGI in experiment [7] of over 100 µM.
Take `NNC(=O)N/N=C1/C(=O)N(c2ccc(Cl)c(Cl)c2)C(=O)C(=O)C1c1nc2ccccc2o1` (stereo unspecified): the TGI in [1], in experiment [2], in experiment [3], in experiment [4], in experiment [5] and in [6] was over 100 µM each time. The compound further yielded a TGI in [7] of over 100 µM.
`O=C(OCc1ccccc1)c1ccccc1-c1c2ccc(=O)cc-2oc2cc(OCc3ccccc3)ccc12`: the TGI was 31.4 µM in [1]; over 100 µM in experiment [2]; 32.2 µM in experiment [3]; 13.9 µM in [4]; over 100 µM in experiment [5]; 74 µM in [6]. In addition, the TGI in experiment [7] was found to be 82.2 µM.
As to `C(=NCCN=Cc1cccc2ccccc12)c1cccc2ccccc12`, the TGI in [1], in [2], in [3], in [4], in [5] and in experiment [6] was over 100 µM each time. The compound further displayed a TGI in [7] of over 100 µM.
With `C#Cc1ccccc1N1C(=O)C=CC1=O`, the TGI in [1], in experiment [2], in [3], in experiment [4], in experiment [5] and in experiment [6] was over 100 µM each time. The same compound displayed a TGI in experiment [7] of over 100 µM.
In the case of `Nc1ncnc2c1ncn2COC/C=C/I`, the TGI in experiment [1], in [2], in experiment [3], in [4], in experiment [5] and in [6] was over 100 µM throughout. In addition, the TGI in experiment [7] is over 100 µM.
Consider `CN/N=C(/CC(=O)c1sc(NNC(C)=O)nc1C)C(=O)Nc1ccc(OC)cc1OC`, for which the TGI in experiment [1], in experiment [2], in [3], in [4], in [5] and in [6] was over 100 µM throughout. Besides, the TGI in [7] was over 100 µM.
Take `COc1ccc2c(c1)C(=O)c1c-2n(CCCNCCO)c(=O)c2cc([N+](=O)[O-])ccc12`: the GI50 is 0.0733 µM in [2]; 0.0477 µM in experiment [3]; under 10 nM in experiment [8]; under 10 nM in experiment [9]; under 0.01 µM in [4]; under 0.01 µM in [5]. In addition, the GI50 in experiment [6] was under 0.01 µM. In addition, the TGI in experiment [2] was 4.77 µM; in experiment [3] it was 0.97 µM; in experiment [8] it was 1060 nM; in experiment [9] it was 0.0264 µM; in experiment [4], 1.03 µM; in [5] it was under 0.034 µM. For the same compound, in experiment [6], the TGI worked out at 1.34 µM.
`CC(=O)N1CCN(C=S)CC1`: the TGI in experiment [1], in experiment [2], in [3], in experiment [4], in [5] and in experiment [6] was over 100 µM throughout. This compound also yielded a TGI in experiment [7] of over 100 µM.
`ClCCCN1CCCCC1CCl` (stereo unspecified): the TGI in experiment [1], in experiment [4], in experiment [5], in experiment [6] and in [7] was over 100 µM in each case.
With `Cc1ccc(NC(=O)CC2C(=O)Nc3ccccc3S2(=O)=O)cc1C` (stereo unspecified), the TGI in [1], in experiment [2], in [3], in experiment [4], in experiment [5] and in experiment [6] was over 100 µM in each case. This compound also showed a TGI in [7] of over 100 µM.
Take `NC(C(=O)O)c1ccc(C(=O)O)cc1` (stereo unspecified): the TGI in experiment [1], in experiment [2], in experiment [3], in experiment [4], in [5] and in experiment [6] was over 100 µM each time. In addition, the TGI in [7] is over 100 µM.
For `CCCCCC/C(CC(=O)CCC(=O)NCCc1ccccc1)=N\NC(=O)c1ccc2ccccc2c1O`, the TGI in experiment [1], in [2], in experiment [3], in experiment [4], in experiment [5] and in experiment [6] was over 100 µM throughout. This compound also had a TGI in [7] of over 100 µM.
For the compound `Cc1c(C(=O)Nc2ccc(Cl)cc2)nc(N)nc1-c1cccc(Cl)c1`, the TGI in experiment [1], in experiment [2], in experiment [3], in [4], in [5] and in experiment [6] was over 100 µM throughout. In experiment [7], this compound showed a TGI of over 100 µM.
On to `COc1ccc(CNC(=O)c2c(C)n([O-])c3cc(F)c(F)cc3[n+]2=O)cc1`, for which the GI50 in [1] was 11.2 µM; in experiment [10], 2110 nM; in experiment [3] it was 16.5 µM; in experiment [9], 5720 nM; in experiment [4] it was 12.8 µM; in [5], 16.9 µM. Further, the GI50 was 3.72 µM in experiment [6] and 17.6 µM in experiment [7]. Further, the TGI in experiment [1] was determined as 26.8 µM; in [10] it was 5.96 µM; in [3], 41 µM; in [9], 19.3 µM; in experiment [4] it was 25.5 µM; in experiment [5], 30.6 µM. Moreover, the TGI was 15.9 µM in [6] and 36.8 µM in experiment [7].
For the compound `Cc1ccc(SSCCCCS(=O)O)cc1`, the TGI is 69.7 µM in experiment [1]; 55.6 µM in experiment [2]; 39.2 µM in [4]; 62.7 µM in [5]; 70.6 µM in experiment [7].
Turning to `CCN(CC)c1ccc(N=C2C=CC(=C(C#N)C#N)c3ccccc32)c(C)c1`, the TGI in [1] was determined as 4.51 µM; in experiment [2], 18.4 µM; in [4] it was 3.44 µM; in [5] it was 10.9 µM; in [6], 7.28 µM; in experiment [7] it was 5.33 µM.
On to `C=C1CC(CC(=O)C(C)CC2CC(=C)C(=O)O2)OC1=O` (stereo unspecified), for which the TGI in experiment [1] is 28.4 µM; in experiment [2], over 100 µM; in [4], over 100 µM; in [5], 35.1 µM; in experiment [6], over 100 µM; in experiment [7], over 100 µM.
Regarding `CC(=O)Nc1ccccc1S(=O)c1ccccc1` (stereo unspecified), the TGI in [1], in experiment [2], in experiment [3], in experiment [4], in experiment [5] and in experiment [6] was over 100 µM throughout. For the same compound, the TGI in [7] was over 100 µM.
Take `O=C1OC(=O)C2C1C1C(c3ccccc3)=C(c3ccccc3)C2(O)C2C(=O)OC(=O)C12` (stereo unspecified): the TGI in experiment [1], in experiment [2], in [3], in experiment [4], in [5] and in experiment [6] was over 100 µM each time. In [7], this compound registered a TGI of over 100 µM.
As for `O=S1Cc2ccccc2CSS1` (stereo unspecified), the TGI in experiment [1] came to 26.2 µM; in experiment [2], 53.9 µM; in experiment [3], 55.4 µM; in experiment [4], 31.9 µM; in experiment [5] it was 30.9 µM; in experiment [6] it was 27.6 µM. Moreover, in [7], the TGI came out at 46.7 µM.
As to `CCc1cccc(CC)c1NC(=O)C1=CNC(C)=C(C(=O)Nc2c(CC)cccc2CC)C1c1ccc(O)c(OC)c1` (stereo unspecified), the TGI was over 100 µM in experiment [1]; over 100 µM in experiment [2]; 89.7 µM in [3]; over 100 µM in [4]; over 100 µM in experiment [5]; over 100 µM in [6]. This compound displayed a TGI in [7] of over 100 µM.
As for `CN(C)c1ccc(/C=c2\sc3nnc(Cc4ccccc4)n3c2=O)cc1`, the GI50 in experiment [1] is over 100 µM; in experiment [2] it was over 100 µM; in [3], over 100 µM; in [4], over 100 µM; in experiment [5], over 10 µM; in experiment [6], over 100 µM. Moreover, the GI50 in experiment [7] is over 10 µM. Moreover, the TGI in experiment [1], in experiment [2], in [3], in [4], in experiment [5] and in [6] was over 100 µM in each case. The same compound came in with a TGI in experiment [7] of over 100 µM.
For `N#CC1([N+](=O)[O-])C=C1c1ccccc1` (stereo unspecified), the TGI in [1], in experiment [2], in experiment [3], in experiment [4], in [5] and in [6] was over 100 µM each time. The compound also came in with a TGI in experiment [7] of over 100 µM.
In the case of `CC(=O)Nc1ccc(OCC(O)CO)cc1` (stereo unspecified), the TGI in experiment [1], in experiment [2], in [3], in experiment [4], in experiment [5] and in experiment [6] was over 100 µM throughout. Besides, in experiment [7], the TGI is over 100 µM.
As for `CC1CCC2[C@@H](C)COC3O[C@]4(C)CCC1C32OO4` (stereo partly specified), the TGI in experiment [1], in experiment [2], in experiment [3], in experiment [4], in [5] and in [6] was over 100 µM in each case. In addition, the TGI in experiment [7] is over 100 µM.
For the compound `C/C(=N\NS(=O)(=O)c1ccccc1)c1ccc[n+]([O-])n1`, the TGI in [2], in experiment [4], in [5], in [6] and in experiment [7] was over 100 µM each time.
In the case of `COc1ccc(S(=O)(=O)N/N=C/CN2C(=O)c3ccccc3C2=O)cc1`, the TGI in experiment [1], in [2], in [3], in experiment [4], in experiment [5] and in experiment [6] was over 100 µM each time. The same compound displayed a TGI in experiment [7] of over 100 µM.
